In PubChem BioAssay (NCI):
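In this assay, cells in 96-well plates receive the compound at five concentrations for 48 hours. Endpoints are linearly interpolated between the surrounding concentrations. TGI marks complete inhibition of growth.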

What was measured:
Assay in all cases: growth of human tumour cells (NCI), 48 h
[1] = system: HOP-62 NSCLC
[2] = system: SF-268 CNS
[3] = system: T-47D breast
[4] = system: DLD-1 colon
[5] = system: DMS 114 small cell lung
[6] = system: DMS 273 small cell lung
[7] = system: HOP-18 NSCLC
[8] = system: KM20L2 colon
[9] = system: LXFL 529 NSCLC
[10] = system: M19-MEL melanoma
[11] = system: RXF-631 renal
[12] = system: SNB-78 CNS
[13] = system: XF 498 CNS

Compound | TGI [1] [µM] | TGI [2] [µM] | TGI [3] [µM] | also measured
COC(=O)/C=C(/C=C1/C(C#N)=C(N)N(c2ccc(Cl)cc2)C1(C)/C(=C/C(=O)OC)C(=O)OC)C(=O)OC (stereo unspecified) | > 100 | > 100 | > 100 | 
O=S(=O)(SC1=NCCN1)c1ccc2ccccc2c1 | 69.5 | 52.5 | > 100 | 
COc1ccc(C[C@@H](CO)NC2=C(C#N)CCC2)cc1 | > 100 | > 100 |  | 
O=c1[nH]nc(-c2ccccc2)n1/N=C/c1ccc([N+](=O)[O-])cc1 | 25.8 | > 87.2 | > 60.2 | 
O=C(O)c1ccccc1/C=N/NC1=NCCN1 | > 100 | > 100 | > 100 | 
COc1ccc(C(=O)c2sc(N(C)C)nc2-c2ccccc2)cc1 | > 100 | > 100 | > 100 | 
COC(=O)C1=C(O)C(C(=O)OC)[C@]2(O)[C@H](C(=O)OC)[C@H]1C[C@@H](c1ccc(Cl)cc1)[C@H]2C(=O)OC (stereo partly specified) | 24 | 29 | > 100 | 
Cc1cc2cc3c(cc2c(-c2ccc([N+](=O)[O-])cc2)n1)OCO3 | 40 | > 100 | > 100 | 
Cc1cccc(C(C)C)c1NC(=O)/C(Cc1c([N+](=O)[O-])cccc1[N+](=O)[O-])=N/NC(=O)CC#N |  | > 100 |  | TGI [4]: > 100 µM; TGI [5]: > 100 µM; TGI [6]: > 100 µM; TGI [7]: > 100 µM; TGI [8]: > 100 µM; TGI [9]: > 100 µM; TGI [10]: > 100 µM; TGI [11]: > 100 µM
COc1ccc(/C=C2\CCC(C)C3C2=NN(c2ccccc2)C3c2ccc(OC)c(OC)c2)cc1OC (stereo unspecified) |  | 30.4 | 9.08 | 
COc1ccc2c(c1)C(=O)Cc1ccccc1CC2 |  | > 100 |  | TGI [4]: > 100 µM; TGI [5]: > 100 µM; TGI [6]: > 100 µM; TGI [7]: > 100 µM; TGI [8]: > 100 µM; TGI [9]: > 100 µM; TGI [10]: > 100 µM; TGI [12]: > 100 µM; TGI [13]: > 100 µM
CC(=N)OC1CC2CCC1(C)C2(C)C (stereo unspecified) | > 100 | > 100 | > 100 | 
c1ccc2c(c1)CC1=C(O2)c2ccccc2OC1 | > 100 | > 100 | 67.9 | 
CCC(C)(C)C1CCC2c3c([nH]c4ccccc34)C3C(=O)N(c4ccc(OC)cc4)C(=O)C3C2C1 (stereo unspecified) | 23.2 | 43.6 | 38.4 | 
O=C(O)CCCn1nnc2c(=O)[nH][nH]c(=O)c21 | > 100 |  |  | 
C=C1[C@H](OC(C)=O)[C@H]2[C@@H](OC(C)=O)[C@@H](C)C[C@]2(C)C(=O)[C@H](C)/C=C/C(C)(C)C(=O)[C@H](OCC(C)C)[C@H]1OC(C)=O | > 25 | > 25 | > 25 | 
CCOC(=O)c1cc2c([nH]1)c(O)cc1c2ccn1Cc1ccccc1 | 38.7 | 51.3 | 11.9 | 
O=C1N=C(SC2OC(CO)C(O)C(O)C2O)S/C1=C\c1ccccc1 (stereo unspecified) | > 100 | > 100 | > 100 | 
O=c1[nH]c(=O)n(CCOc2ccccc2)cc1Nc1ccccc1 | 87.4 | > 100 |  | 

Compound | TGI [1] [µM] | TGI [2] [µM] | TGI [3] [µM] | also measured
CO/C(N)=C(\C#N)N=Cc1ccco1 | > 100 | > 100 | > 100 | 
COc1cc2ncnc(Nc3cccc(Cl)c3)c2cc1OC | 58.7 | 53.9 | > 67.1 | 
O=C1N[C@H]2c3c(Cl)sc(Cl)c3[C@@H](O)[C@H]2O1 | > 100 | > 100 | > 100 | 
Clc1ccccc1-c1nc2ccc(C34CC5CC(CC(C5)C3)C4)cc2[nH]1 | 34.9 | > 100 | 27.8 | 
Cc1cc2c(cc1C(=O)CCC(=O)O)CC1(C2)Cc2cc(C)c(C(=O)CCC(=O)O)cc2C1 | > 100 | > 100 | > 100 | 
N#CC1C(=O)N(c2ccccc2)NC12OC(=O)c1ccncc12 (stereo unspecified) |  |  | > 20 | 
Nc1nc(Cl)c(CO)c(NCC2(CO)CC(CCc3ccccc3)C2)n1 (stereo unspecified) | 99.3 | > 100 |  | 
Cc1cc(S(=O)(=O)Nc2nc(N)n(-c3ccccn3)n2)c(S)cc1Cl | > 100 | > 100 | > 100 | 
COc1cc(/C=C2/SC(c3ccccc3)N(c3ccccc3Cl)C2=O)cc(OC)c1OC (stereo unspecified) | > 100 | > 100 | > 100 | 
Cc1c(C)c(C)n(C2OC(CO)C(O)C(O)C2O)c(=S)c1C#N (stereo unspecified) | > 100 | > 100 | > 100 | 
COC(=O)C1=C(O)C(C(=O)OC)[C@]2(O)[C@H](C(=O)OC)[C@H]1C[C@@H](c1ccc(OC)c(OC)c1)[C@H]2C(=O)OC (stereo partly specified) | > 100 |  | > 100 | 
CC(=O)c1sc2c(c1OC(=O)c1ccco1)c(=O)n(-c1ccccc1)c(=S)n2-c1ccccc1 | 66.8 | 87.2 | 36.4 | 
CC1OC(OC2C(OC(=O)[C@]34CCC(C)(C)CC3C3=CCC5[C@@]6(C)C[C@H](O)[C@H](OC7OC(CO)C(O)C(O)C7N)[C@@](C)(C(=O)O)C6CC[C@@]5(C)C3(C)CC4)OCC(O)C2O)C(O)C(O)C1OC1OCC(O)C(O)C1O (stereo partly specified) | > 100 | > 100 |  | TGI [4]: > 100 µM; TGI [5]: > 100 µM; TGI [6]: > 100 µM; TGI [7]: > 100 µM; TGI [8]: > 100 µM; TGI [10]: > 100 µM; TGI [12]: > 100 µM
OC1(c2ccccc2)C2CCN(CC2)C1CN1CCOCC1 (stereo unspecified) | > 100 | > 100 | > 100 | 
C[N+](C)(C)CCCSc1nc2ccccc2[nH]1 | > 100 | > 100 | > 100 | 
COc1cc(/C=N\N(C)C)cc(/C=N/N(C)C)c1O | > 100 | > 100 | 15.2 | 
CCOC(=O)CCCNC(=O)CCCCC(=O)N(C)C | > 100 | > 100 | > 100 | 
COC(=O)c1cc(C)ccc1C1CN=NC12Cc1ccc(C)cc1C2=O (stereo unspecified) | > 100 | > 100 | > 100 | 
